experiment: Human HepG2 cell viability assay in 384 well format; format: toxicity, cell-based; set-up: dose 125 nL, time 70.5 hour; concentration not given beside the values; details: HepG2 cells, read-out: Inhibition

SMILES | cytotoxicity at 70.5 h [%]
O=C(NCc1cccc(F)c1)NC1CCCN(c2ncccn2)C1 (centres undefined) | -9.75
CCCc1cc(C(=O)NCCN2C(=O)c3ccccc3C2=O)[nH]n1 | -8.43
CS(=O)(=O)CCNCc1ccc(OCc2ccncc2)cc1 | 19.2
Cc1[nH]c2c(C)ccc(C)c2c1CC(=O)NC1CCCNC1=O (centres undefined) | -5.85
COc1ccc(-c2cc(C[C@@H]3C[C@H](N(C)C)C3(C)C)no2)cc1 | 5.02
c1csc(-c2nnc(CSCCN3CCOCC3)o2)c1 | 12.2
CCN(CC)Cc1ccc(C(=O)N2CCCC2c2cnn(C)c2)o1 (centres undefined) | 21.2
Fc1cnc(N2CCCC3(CCN(Cc4cccs4)C3)C2)nc1 (centres undefined) | -2.04
Cc1ccc(CN2CCc3onc(C(=O)Nc4cccnc4)c3C2)o1 | -7.97
Cc1ccc(C)c(CN2CCOC(c3noc(C)n3)C2)c1 (centres undefined) | -4.49
CNc1nc(C(=O)N2C[C@H]3CC[C@@H]2CN(S(C)(=O)=O)C3)cs1 | 12
CCOc1ccc2cc(C(=O)NCCC(=O)N(C)C)[nH]c2c1 | -7.75
CN(C)Cc1nnc2n1CCN(Cc1ccccn1)CC2 | -10.5
COC1(CNC(=O)c2ccsc2)CCSC1 (centres undefined) | -13
CC(C)S(=O)(=O)NCC1CCCN(C(=O)c2ccc3c(c2)CCC3)C1 (centres undefined) | 1.31
O=C(Cc1ccc2c(c1)CCC2)NC1CCN(Cc2ccccc2)CC1 | 30.6
Cc1cc(CN2CCCC2c2c(C)nn(C)c2Cl)on1 (centres undefined) | 0.0053
O=C(c1cc(=O)[nH]c(=O)[nH]1)N1CCCCC1c1nc2cc(F)ccc2[nH]1 (centres undefined) | -6.77
O=C(CS(=O)(=O)Cc1ccc(F)cc1)NCc1ccccc1F | -8.79
NC(=O)CN1CCC(C(=O)NCCc2nc(-c3ccccc3)cs2)CC1 | -3.75
Cc1cnn(CCNCC(=O)NCCOc2ccc(Cl)cc2)c1 | -13
CCc1nc(CCNC(=O)NC2CCSCC2)cs1 | 5.18
CC(C)c1nn(C)c(N(C)C)c1CNC(C)c1ccccc1F (centres undefined) | -1.04

SMILES | cytotoxicity at 70.5 h [%]
CCC1CN(C(=O)c2ccccc2N(C)C)CCN1C(C)C (centres undefined) | 1.87
Cc1nn(C)cc1CN1CCCCCC1c1ccc(Cl)cc1 (centres undefined) | 6.75
Cc1ccccc1-c1cncc(C2CCN(C(C)C)CC2)n1 | -22.4
O=C(N1CCCC1)N1CCN(Cc2cccnc2)c2ncccc2C1 | -10.8
Cc1cnn(CCNCC(O)c2ccc(C(F)(F)F)cc2)c1 (centres undefined) | -17.1
CCN1CCC(CC(=O)NC[C@H]2CCc3ccccc3O2)CC1 | -8.77
COc1cncc(N2CCN(Cc3ccco3)CC2)n1 | -12.1
COCCC(=O)N1CCC2(CC1)CN(C(C)=O)Cc1ccccc1O2 | 0.622
COc1ccc(CNC(=O)CCN2CCOC(C(F)(F)F)C2)cc1 (centres undefined) | -7.56
Cc1nc(C)n(CC2CCCN2Cc2cn3cc(Cl)ccc3n2)n1 (centres undefined) | -1.76
c1cc(CN2CCOCC3(CCN(C4CCOCC4)C3)C2)ccn1 (centres undefined) | 6.88
CCOc1cccc(CCNC(=O)NC2CCc3[nH]ncc3C2)n1 (centres undefined) | 24.3
Cn1nnc2c1CCN(CC1CC1)C2COCc1ccccc1 (centres undefined) | -6.64
Cc1noc(C)c1CN1CCN(c2ccnc(-c3ccccc3)n2)CC1 | 26.5
COC(=O)c1ccc(C(=O)N2CCCC(Nc3ccc(F)cc3)C2)cc1 (centres undefined) | -1.16
COc1cccc(S(=O)(=O)N2C[C@@H](N(C)C)[C@H](C(C)C)C2)c1 | -0.713
c1ccc(N2CCCC3(CCN(Cc4cccs4)C3)C2)nc1 (centres undefined) | 33.5
Cc1noc(C)c1CNC(=O)Nc1ccc(N2CCOC2=O)cc1 | -17.5
COc1ccc2c(c1)nc1n2[C@@H](CNCc2ccccc2)COC1 | 10.1
Cc1cc(F)ccc1N1CCC(N2C[C@@H](C)[C@@](C)(O)C2)CC1 | -5.91
Cc1cnn(CC2CCCN2C(=O)c2cccnc2-n2cncn2)c1 (centres undefined) | -13.9
CC(Cn1cccn1)Nc1cnc2ccccc2n1 (centres undefined) | -0.212
COCc1nc(CNC(=O)C(C)n2ccnc2C(C)C)no1 (centres undefined) | -9.39

SMILES | cytotoxicity at 70.5 h [%]
CN(C)C(C(=O)NCCn1cccc1)c1cccc(F)c1 (centres undefined) | -4.48
CNC(=O)[C@H]1C[C@@H]2CN(C(=O)c3cnc(C)cn3)C[C@@H]2N1C | -8.55
CCN(CC1CCCO1)S(=O)(=O)c1cc(NC(C)=O)ccc1C (centres undefined) | 6.44
O=C(CCn1cccn1)N1C[C@@H]2CC[C@H](C1)N(Cc1ccccn1)C2=O | -2.38
COC(=O)[C@H]1C[C@@H](O)CCN1S(=O)(=O)c1cc(C)c(Cl)cc1C | 0.229
Cc1nc(C(C)C)sc1C(=O)N(C)Cc1nc(-c2ccccn2)no1 | -9.57
Cc1ccc(CN(C)Cc2nc3ccc(F)cc3[nH]2)cn1 | -0.998
CCOc1nnc(CN(C)C2CCCN(c3cccnn3)C2)s1 (centres undefined) | 3.52
CN1CCc2ccc(NCc3cscn3)cc2C1=O | 2.5
COCCn1cc(C(=O)Nc2nc3c(s2)CCC3)c2ccccc21 | 37
O=C(C1CCCO1)N1CCC(n2cc(-c3ccc(F)cc3)nn2)CC1 (centres undefined) | 0.724
O=C(NCc1noc(C2CCCO2)n1)c1cn2ccsc2n1 (centres undefined) | -9.32
CC(OCC(F)(F)F)C(=O)N1CCOCC1 (centres undefined) | -99.6
Cc1cn2nc(N3CCCC3Cn3cncn3)sc2n1 (centres undefined) | -3.48
N[C@H]1CN(S(=O)(=O)N2CCCC2)C[C@@H]1c1ccccc1 | -4.68
Cc1nc(N2CCOCC2)nc2c1CCN(Cc1ccsc1)CC2 | 1.35
Cc1noc([C@@H]2C[C@H]3OCC[C@H]3N(S(=O)(=O)c3ccccc3)C2)n1 | -1.71
Cc1ccc(CN2CCOC3(CCCN(C(=O)c4ccco4)C3)C2)o1 (centres undefined) | -5.05
CC(=O)N(Cc1ncc(C)o1)C1CCN(CCc2cccs2)C1 (centres undefined) | 17.8
O=C1CO[C@@H]2CN(Cc3ccsc3)C[C@H]2N1Cc1ccncc1 | 13.6
CC(C)C(CNCc1cccc2c1OCO2)N1CCOCC1 (centres undefined) | 3.33
CNC(=O)c1ccc(C2CN(C(=O)COC)CCO2)nc1 (centres undefined) | -16.7
CCc1nc(NCCCOC)c2c(n1)c(C)nn2C | -13.4

SMILES | cytotoxicity at 70.5 h [%]
CSCC(C)(O)CNC(=O)c1cc(Br)ccc1Cl (centres undefined) | 16.5
COc1ccc(-n2c(CCC(=O)O)nc3ccccc32)cc1CO | 4.28
O=C(c1cn(-c2ccc(C(F)(F)F)cn2)nn1)N1CCCCCC1 | -3.98
CCNC(=O)NC(=O)CNc1cc(C#N)ccc1OCC | -3.61
CCn1nc(C)c(CCN2CC3(CCOC3)CCC2=O)c1C (centres undefined) | 25.5
CS(=O)(=O)c1ccccc1N[C@@H]1c2ccccc2C[C@@H]1O | 21.1
Cn1ncc2c(=O)[nH]c(CN3CCCC3CC(C)(C)C)nc21 (centres undefined) | -4
Cc1nc(CN2CCCC(NCc3sccc3C)C2)no1 (centres undefined) | -2.7
Cc1ccsc1C(=O)N1CC[C@H]2CO[C@H](CN(C)C)[C@H]2C1 | -6.98
Cc1ccc(C(=O)N2CC[C@@H](N(C)C)[C@@H]2Cc2cnn(C)c2)cn1 | -10.1
CC(C)c1cc(O)nc(C2CCCN2C(=O)C(C)(C)C)n1 (centres undefined) | 26.4
Cc1cc(C)n(CC(C)CNC(=O)NCc2ccco2)n1 (centres undefined) | -10.4
Cc1cc(C)cc(C(=O)N2CCCN(CC(N)=O)CC2)c1 | 37.8
Cc1noc(CS(=O)(=O)CC(=O)NC(C)c2ccccc2)n1 (centres undefined) | -12.5
CC(C)(C)NC(=O)CCn1ncc2c(Cl)cccc21 | -5.97
O=C(NCCO)Nc1ccc(Br)c(F)c1 | -0.649
COc1ccc(-c2noc(Cn3cc(C)cn3)n2)c(OC)c1OC | -1.78
Cc1ccccc1CNC(=O)CN1CCCC(Cc2nccn2C)C1 (centres undefined) | -1.13
COc1cc(CNC(=O)Nc2nnc(C(F)(F)F)s2)ccc1O | 2.56
COc1ccc(-c2ccccc2CN)c(OC)c1 | 21.8
CS(=O)(=O)NCc1cn2c(n1)CN(Cc1ccoc1)CC2 | 3.17
CN(Cc1ccco1)C(=O)C1CCCc2ccccc21 (centres undefined) | -3.68
c1cnn(C2CN(CCCOc3ccc4c(c3)OCO4)C2)c1 | 11.1

SMILES | cytotoxicity at 70.5 h [%]
NC(=O)N1CCC2(CCN(C(=O)c3cccnc3)CC2)C1 | 0.925
Cc1noc(C2CCCCN2C(=O)C2CCN(C(C)C)CC2)n1 (centres undefined) | 5.11
CCOCC(=O)N1CCCC2(CCN(c3ccccc3)C2=O)C1 (centres undefined) | -8.08
CCCNC(=O)Cn1c(C)nn(C(C)(C)C)c1=O | 9.3
COc1ccc(F)cc1C(C)NC(=O)Cn1ccc(=O)n(C)c1=O (centres undefined) | -6.42
CN1CCCN(S(C)(=O)=O)c2cc(F)ccc21 | -3.48
CO[C@@H]1CC[C@H]2[C@H]1OCCN2CC1CC1 | -83.7
Cc1cccc(OC2CCN(S(=O)(=O)Cc3cccc(F)c3)CC2)n1 | -1.18
COc1ccc(-c2nc(C#N)c(N(C)C)o2)cc1OC | -5.52
CCCn1cc(Cl)c(C(=O)N2C[C@@H](O)[C@H](NC(C)=O)C2)n1 | -8.89
CS(=O)(=O)N1CCc2sc(C(=O)NCCc3ccccn3)cc21 | -10.9
c1ncn(CC2CCCN(Cc3cn4ccsc4n3)C2)n1 (centres undefined) | -5.75
COc1ccccc1OCC(=O)Nc1ncccc1C | -3.19
CCN1CCCC(CN2CCn3nc(CNC(=O)N(C)C)cc3C2)C1 (centres undefined) | -8.51
CCC(=O)N1CCCCC1c1nc(O)c2c(n1)CN(C(=O)C1CC1)CC2 (centres undefined) | -7.02
CCO[C@H]1C[C@@H](O)C12CCN(C1Cc3ccccc3C1)CC2 | -10.5
CC(=O)N1CCCN(Cc2ccon2)c2ccccc21 | 18.6
Cc1cc(-c2cnc(NC3CCCC3)nc2-c2ccoc2)on1 | -2.38
CSCc1ccc(C(=O)N2CCN(CC(C)O)CC2)cc1 (centres undefined) | -15.3
Cc1nn(C)c(C)c1OCC(=O)N1CCCCC1 | -2.11
COCCN1C[C@H]2CC[C@@H]1CN(Cc1nc3ccccc3n1C)C2 | -6.43
COc1ccccc1OC1CCN(c2nc(N)nc3[nH]cnc23)CC1 | 2.92

— ChEMBL document CHEMBL3507680, “University of Dundee, Gates Library screen for HepG2 cell viability”
